Test results reported in patent US8603980B2, “Glutamate receptor antagonists and methods of use” (The Johns Hopkins University, priority 2007, dated 2013).
“Also recorded” adds a separate entry of the source. Read-outs that look alike come from different tables or passages of the source.

How the values were obtained:
human platelets = assay: Platelet activation by FACS (PAC-1 antibody binding or surface P-selectin); format: cell-based; conditions: for AMPA mediated increase in TRAP induced platelet activation: substance added before AMPA, CNQX 100 μM, JST 1 μM
Description: It was next determined whether glutamate is a mediator of platelet activation.
Blood was collected into citrate anticoagulant, platelets were isolated as platelet rich plasma (PRP) by centrifugation at 180 g for 15 min, and then diluted in Tyrode's buffer 1:20 for activation flow cytometry studies. […] Washed platelets were resuspended in Tyrode's.

[1] = system: AMPA receptor subunits GluR1-4 and kainate receptor subunit GluR5; conditions: cited from earlier work
platelets [2] = assay: Intracellular sodium in platelets (SBFI dye, FACS); format: cell-based, human; conditions: for Na+ level / influx in platelets treated with TRAP alone: amiloride 100 μM
Description: (§1) Human platelets were isolated from healthy volunteers who had not taken aspirin or NSAID within 10 d, under a protocol approved by The Johns Hopkins University School of Medicine Institutional Review Board (JCCI). Blood was collected into citrate anticoagulant, platelets were isolated as platelet rich plasma (PRP) by centrifugation at 180 g for 15 min, and then diluted in Tyrode's buffer 1:20 for activation flow cytometry studies. To determine surface GluR1, a Fc Blocking antibody was added to reduce non-specific background antibody binding. Mouse platelets were isolated by collection into heparinized Tyrode's buffer and isolated by centrifugation. Washed platelets were resuspended in Tyrode's. Intracellular ion concentrations were performed after incubating platelets diluted 1:20 in Tyrode's buffer with SBFI for 45 minutes prior to experiments.

megakaryocytes = assay: Whole-cell recordings from freshly isolated megakaryocytes; format: cell-based, mouse
Description: All procedures using animals were approved by the University of Miyazaki Institutional Animal Care and Use Committee. Megakaryocyte preparation was performed as reported previously (43). Briefly, mouse bone marrow was flushed with Na+-rich external solution (Na+-ES, 150 mM NaCl, 1 mM CaCl2, and 10 mM HEPES, pH adjusted to 7.2 using NMDG-OH). Cells were dispersed by repetitive pipetting, washed three times by gentle centrifugation, resuspended in Na+-ES and used within 90 min of isolation.
Whole-cell recordings were obtained from freshly isolated megakaryocytes using an intracellular solution of the following composition: 150 mM CsCl, 1 mM ethylene glycol bis(-aminoethylether)-N,N,N′,N′-tetraacetic acid (EGTA) and 10 mM HEPES. The pH was adjusted to 7.3 using NMDG-OH. The patch-clamp procedures were similar to those described previously (43). Briefly, the experiments were performed in the tight seal whole-cell configuration at room temperature and electrical signals were acquired with an HEKA EPC-7 (Darmstadt, Germany). The pipette resistances ranged between 2 MΩ and 3 MΩ. Current-voltage relationships (I-V curves) were obtained by clamping the cell to different potentials in 30 mV increments (−30, 0 and +30 mV; each of 35 ms duration) from a holding potential of −60 mV. I-V curves obtained prior to the application of the agonists were subtracted from those (typically two) obtained in the presence of the agonists. The current responses were monitored on a chart recorder (WR7700, Graphtec, Tokyo, Japan) through a lowpass filter (200 Hz). Chemicals and reagents used were purchased from either Sigma (St. Louis, Mo.) or Wako Pure Chemicals (Osaka, Japan). […] The perfusion pipette was located within 30 μm of the cell and the puff pressure was adjusted to obtain rapid and effective agonist application (<10 msec).

platelets [3] = assay: Platelet aggregation (aggregometer) in response to TRAP; format: cell-based, human; conditions: for final aggregation: exogenous addition
Description: as §1, with “The functional relevance of targeting platelet AMPAR signaling was assayed by first measuring aggregation in response to TRAP (10 μM) after incubating platelets with control or CNQX (1-100 μM). […] Human” for “Human”

[4] = Intravital microscopy of FeCl3 induced thrombosis in mesenteric arterioles; format: in vivo, mouse; conditions: for time to total vessel occlusion: FeCl3 injury
[5] = moderate TRAP (5 μM), platelets pre-incubated with substance
[6] = i.v. 20 mins before FeCl3, vs PBS

Description for Tail bleeding time: Mice were treated intravenously (i.v.) with control PBS or CNQX (0.1 mg/kg) and 20 mins later tail bleeding times were determined.
6 week old male mice were anesthetized with ketamine and xylazine (80/13 mg/kg) and injected i.v. with either PBS or CNQX:HBC, 0.1 mg/kg of active CNQX. Twenty minutes later the distal 3 mm of the tail was amputated, immersed in 37° C. saline and the time to visual cessation of bleeding recorded.

SMILES: O=C(O)C1CN(CCCP(=O)(O)O)CCN1 (racemic) [CPP, (±)-3-(2-Carboxypiperazin-4-yl)propyl-1-phosphonic acid]
- glutamate mediated increase in TRAP induced platelet activation (human platelets): does not inhibit

SMILES: N[C@@H](Cn1nc(Cl)c(=O)[nH]c1=O)C(=O)O [5-chloro-6-azawillardiine]
- selectivity for GluR4 over GluR1 and 2 ([1]; at the cost of selectivity for AMPA over kainate receptors): some selectivity

SMILES: Cc1onc(O)c1C[C@H](N)C(=O)O [AMPA, alpha(α)-amino-3-hydroxy-5-methyl-4-isoxazolepropionic acid]
- platelet activation in response to thromboxane mimetic U46619 (human platelets): increases platelet activation
- Na+ influx in response to TRAP after NHE inhibition (platelets [2]; AMPA added after amiloride (100 μM)): restores Na+ influx
- current on rapid application without cyclothiazide (megakaryocytes): did not induce a measurable current
- inward current following rapid perfusion (megakaryocytes): 8.6+/−4.5 pA
- reversal potential of the agonist-induced current (megakaryocytes): ~0 mV
- platelets aggregated at 1 min post-TRAP (platelets [3]; AMPA 1 mM pre-treatment): approximately 75%
- rate of early aggregation (platelets [3]; AMPA 1 mM, TRAP 10 μM): increases
- final aggregation (platelets [3]): no effect

SMILES: CC(C)(C)c1o[nH]c(=O)c1CC(N)C(=O)O (stereo not shown) [ATPA]
- platelet activation by FACS (human platelets): increases platelet activation

SMILES: N#Cc1cc2[nH]c(=O)c(=O)[nH]c2cc1[N+](=O)[O-] [CNQX, -cyano-7-nitroquinoxaline-2,3-dione]
- TRAP induced platelet activation at low antagonist concentration (human platelets; 10 μM CNQX): significantly decreases platelet activation
- TRAP induced platelet activation: P-selectin expression (human platelets; P-selectin by FACS): decreases platelet activation
- TRAP induced platelet activation (PAC-1 antibody binding) (human platelets; [5]): inhibits
- AMPA mediated increase in TRAP induced platelet activation (human platelets): inhibits the effects of AMPA
- Na+ concentration in platelets treated with AMPA and TRAP (platelets [2]; CNQX 100 μM): decreases Na+ concentrations
- Na+ level / influx in platelets treated with TRAP alone (platelets [2]; CNQX 100 μM): decreases Na+ levels
- AMPA induced inward current in presence of antagonist (megakaryocytes; CNQX 30 μM): blocked
- platelet aggregation in response to TRAP (platelets [3]; TRAP 10 μM, CNQX 1-100 μM): dose dependently reduces platelet aggregation
- selectivity for AMPAR subunits versus KA receptor subunits [1]: 20-150 fold
- time to total vessel occlusion [4]: prolonged
- time to platelet adhesion (greater than 10 platelets adherent for greater than 10 sec) [4, 6]: prolonged
- time to thrombus formation (first stable thrombus greater than 20 μm) [4, 6]: prolonged
- average tail bleeding time (Tail bleeding time; 0.1 mg/kg i.v., 20 mins before): approximately 600 sec

SMILES: NCCCNCCCCNCCC(=O)NCCCCCNC(=O)[C@H](CC(N)=O)NC(=O)Cc1ccc(O)cc1O [JST]
- AMPA mediated increase in TRAP induced platelet activation (human platelets): no effect

SMILES: C=C(C)[C@H]1CN[C@H](C(=O)O)[C@H]1CC(=O)O [KA, kainic acid]
- TRAP induced platelet activation (PAC-1 antibody binding) (human platelets; [5]): dose dependently increases
- inward current following rapid perfusion (megakaryocytes; 100 μM, cyclothiazide in the recording solution): 3.1+/−0.9 pA
- current on rapid application without cyclothiazide (megakaryocytes; 0.1 or 1 mM, no cyclothiazide): did not induce a measurable current
- reversal potential of the agonist-induced current (megakaryocytes; I-V curves, cyclothiazide, no obvious rectification): ~0 mV

SMILES: N[C@@H](Cn1ccc(=O)n(Cc2ccccc2C(=O)O)c1=O)C(=O)O [UBP302]
- platelet activation by FACS (human platelets): dose dependently reduces platelet activation
- time to total vessel occlusion [4]: prolonged time to total vessel occlusion
- bleeding time in mice (Tail bleeding time; mouse, in vivo): prolongs bleeding time

SMILES: N=C(N)NC(=O)c1nc(Cl)c(N)nc1N [amiloride]
- Na+ level / influx in platelets treated with TRAP alone (platelets [2]; CNQX 100 μM): reduces Na+ influx

SMILES: N[C@@H](CCC(=O)O)C(=O)O [glutamate]
- ATP mediated platelet activation (human platelets): not increased
- P2Y agonist 2-Me-ADP induced platelet activation (human platelets): increases
- TRAP induced platelet activation (PAC-1 antibody binding) (human platelets): significantly increases platelet activation; also recorded: dose dependently increases
- TRAP induced platelet activation: P-selectin expression (human platelets): increases agonist induced platelet activation
- collagen induced platelet activation (human platelets): no effect
- epinephrine induced platelet activation (human platelets): significantly increases
- increase in platelet activation following low concentration TRAP versus control (human platelets): approximately two times greater
- increase in platelet activation following low concentration thromboxane mimetic versus control (human platelets): approximately three times greater than control
- increase of TRAP induced platelet activation compared to control treated platelets (human platelets): greater than 50%
- platelet activation at high TRAP concentration (human platelets): no effect
- platelet activation in response to thromboxane mimetic U46619 (human platelets): dose dependently increases
- resting platelet activation (PAC-1 antibody binding) (human platelets): does not increase
- final aggregation (platelets [3]): no effect
